Eight molecules from PubChem BioAssay (NCI) can be followed below.

Test systems include HOP-62 NSCLC; LOX IMVI melanoma; UACC-257 melanoma; MCF7 breast; SK-MEL-5 melanoma; COLO 205 colon; SW-620 colon; M14 melanoma; SF-539 CNS; RXF 393 renal; HL-60(TB) leukemia; SN12C renal; 786-0 renal; HS 578T breast; NCI-H23 lung; K-562 leukemia; NCI/ADR-RES ovarian; DU-145 prostate; HOP-92 NSCLC; SK-MEL-2 melanoma.
Common to all, as to experiment: NCI tumour cell line growth inhibition, 48 h

SMILES strings stand for the structures.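 Growth conditions: 96-well plates. Treatment: test compound, 48 hours, 5 concentrations. Analysis: linear interpolation between bracketing concentrations; unreached endpoints set to highest concentration. TGI denotes the concentration required for complete inhibition of growth.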

In the case of `COc1ccccc1C(C1=C(O)COC1=O)c1cc2c(cc1OC(C)=O)OCO2` (centres undefined), the TGI in the assay on HOP-62 NSCLC, in the assay on LOX IMVI melanoma, with UACC-257 melanoma, with MCF7 breast, in the assay with SK-MEL-5 melanoma and in the assay with COLO 205 colon was more than 100 µM throughout. Further, the TGI with SW-620 colon, with M14 melanoma, in the assay on SF-539 CNS, in the assay on RXF 393 renal, in the assay on HL-60(TB) leukemia and in the assay on SN12C renal was more than 100 µM throughout. Moreover, the TGI with 786-0 renal, with HS 578T breast, in the assay on NCI-H23 lung, in the assay with K-562 leukemia, in the assay with NCI/ADR-RES ovarian and in the assay with DU-145 prostate was more than 100 µM in each case.
With `COc1cccc2c(NNc3ccccc3)c3ccc([N+](=O)[O-])cc3nc12`, the TGI in the assay on HOP-62 NSCLC, in the assay with LOX IMVI melanoma, in the assay on UACC-257 melanoma, with MCF7 breast, in the assay with HOP-92 NSCLC and in the assay on SK-MEL-5 melanoma was more than 100 µM each time. For the same molecule, the TGI in the assay on COLO 205 colon, in the assay with SK-MEL-2 melanoma, in the assay on SW-620 colon, in the assay on M14 melanoma, in the assay on SF-539 CNS and with RXF 393 renal was more than 100 µM each time. For the same molecule, the TGI with SN12C renal is more than 100 µM; in the assay with 786-0 renal it was 73.3 µM; in the assay on NCI-H23 lung it was more than 100 µM; in the assay on K-562 leukemia it was more than 100 µM; in the assay on NCI/ADR-RES ovarian, more than 100 µM; in the assay with DU-145 prostate, more than 100 µM.
In the case of `CCOC(=O)n1[nH]c(=O)n(-c2ccccc2)c1=O`, the TGI in the assay with HOP-62 NSCLC, with LOX IMVI melanoma, in the assay on UACC-257 melanoma, in the assay on MCF7 breast, in the assay on SK-MEL-5 melanoma and with COLO 205 colon was more than 100 µM each time. For the same molecule, the TGI with SK-MEL-2 melanoma, in the assay on SW-620 colon, in the assay with M14 melanoma, in the assay with RXF 393 renal, in the assay on HL-60(TB) leukemia and in the assay on SN12C renal was more than 100 µM throughout. In addition, the TGI with 786-0 renal, with HS 578T breast, with NCI-H23 lung, in the assay with K-562 leukemia, in the assay with NCI/ADR-RES ovarian and in the assay with DU-145 prostate was more than 100 µM throughout.
As to `O=C1C2=Cc3ccccc3OC2(O)Oc2cc(O)ccc21` (centres undefined), the TGI in the assay on HOP-62 NSCLC, in the assay with LOX IMVI melanoma, in the assay with UACC-257 melanoma, in the assay with MCF7 breast, with HOP-92 NSCLC and in the assay on SK-MEL-5 melanoma was more than 100 µM throughout. For the same molecule, the TGI with COLO 205 colon, in the assay on SK-MEL-2 melanoma, in the assay on SW-620 colon, with M14 melanoma, in the assay with SF-539 CNS and in the assay with RXF 393 renal was more than 100 µM each time. Moreover, the TGI with SN12C renal, with 786-0 renal, in the assay with NCI-H23 lung, with K-562 leukemia, in the assay on NCI/ADR-RES ovarian and in the assay with DU-145 prostate was more than 100 µM each time.
For `OCC1NCC(O)C(O)C1O` (centres undefined), the TGI with HOP-62 NSCLC, in the assay with UACC-257 melanoma, in the assay on MCF7 breast, in the assay with HOP-92 NSCLC, in the assay with SK-MEL-5 melanoma and with COLO 205 colon was more than 100 µM each time. The TGI in the assay on SW-620 colon, in the assay with M14 melanoma, with SF-539 CNS, with RXF 393 renal, with HL-60(TB) leukemia and in the assay on SN12C renal was more than 100 µM throughout. Moreover, the TGI with 786-0 renal, with HS 578T breast, in the assay on NCI-H23 lung and in the assay on DU-145 prostate was more than 100 µM throughout.
As for `CC1(C)C(O)C[C@]23CCC[C@](C)(C[C@@H](O)C12)C3` (some centres undefined), the TGI in the assay on HOP-62 NSCLC, in the assay with LOX IMVI melanoma, in the assay on UACC-257 melanoma, with MCF7 breast, in the assay with HOP-92 NSCLC and with SK-MEL-5 melanoma was more than 100 µM each time. The TGI with COLO 205 colon, in the assay on SK-MEL-2 melanoma, in the assay on SW-620 colon, in the assay with M14 melanoma, in the assay on HL-60(TB) leukemia and in the assay with SN12C renal was more than 100 µM throughout. The TGI in the assay with 786-0 renal, with HS 578T breast, in the assay on NCI-H23 lung, with K-562 leukemia and with NCI/ADR-RES ovarian was more than 100 µM throughout.
As to `CCOP(=O)(OCC)C1CC(O)CN1OC(=O)C(C)(C)C` (centres undefined), the TGI with HOP-62 NSCLC, in the assay with LOX IMVI melanoma, in the assay on UACC-257 melanoma, in the assay with MCF7 breast, in the assay on SK-MEL-5 melanoma and in the assay with COLO 205 colon was more than 100 µM in each case. In addition, the TGI in the assay with SK-MEL-2 melanoma, in the assay on SW-620 colon, in the assay on M14 melanoma, with SN12C renal, in the assay on 786-0 renal and with HS 578T breast was more than 100 µM each time. Moreover, the TGI with NCI-H23 lung, with K-562 leukemia, with NCI/ADR-RES ovarian and in the assay on DU-145 prostate was more than 100 µM in each case.
As to `CCOC(=O)CC(=O)C(=O)NNC1=NCCCN1`, the TGI in the assay with HOP-62 NSCLC, in the assay with LOX IMVI melanoma, with MCF7 breast, in the assay on HOP-92 NSCLC, with SK-MEL-5 melanoma and with COLO 205 colon was more than 100 µM throughout. Further, the TGI in the assay with SK-MEL-2 melanoma, with SW-620 colon, with M14 melanoma, in the assay with SF-539 CNS, with RXF 393 renal and with HL-60(TB) leukemia was more than 100 µM in each case. In addition, the TGI with SN12C renal, in the assay with 786-0 renal, in the assay with HS 578T breast, with NCI-H23 lung, in the assay on K-562 leukemia and in the assay with DU-145 prostate was more than 100 µM each time.
